{
  "source": "patent EP0063075A1",
  "about": "“(2,6-Dimethoxy-4-hydroxyphenyl)-(3-piperidinopropyl) ketone and its salts, its use in therapeutic preparations and process for its production” (LABORATOIRE L. LAFON Société anonyme dite:, priority 1981, dated 1982)",
  "key": {"[1]": {"details": "result in words, compared with LL 1656; cited from earlier work"}, "[2]": {"assay": "Solubility in water (description of the isolated product)", "assay_type": "physicochemical", "details": "result in words"}, "[3]": {"system": "chien mâle anesthésié au nembutal", "assay": "Peripheral vasodilator properties, intraduodenal administration in the anaesthetised dog", "assay_type": "in vivo", "details": "for effet sur la pression artérielle par voie I.D. / effet vasodilatateur par voie I.D.: result in words", "method": "(§1) Les propriétés vasodilatatrices périphériques ont été étudiées chez le chien mâle anesthésié au nembutal (6 animaux par dose et par produit). Les produits à comparer sont administrés en solution dans du sérum physiologique sous un volume de 6 ml/animal par voie intraveineuse (perfusion de 1 ml/min) et sous un volume de 10 ml/animal par voie intraduodénale. Par rapport aux témoins (les mêmes animaux ne recevant que le sérum physiologique), on mesure trois paramètres : la pression artérielle moyenne (exprimée en mm Hg; mm Hg correspond à 1,333224 x 10^2 Pa), la fréquence cardiaque (exprimée en battements/minute) et le débit artériel fémoral (exprimé en ml/min). Les variations de ces paramètres exprimées en pourcentages, par rapport aux témoins, sont données dans les tableaux II (administration intraveineuse) et III (administration intraduodénale) ci-après.\n(§2) La vasodilatation périphérique se traduit dans ces circonstances par une augmentation du débit artériel fémoral. On dit, selon les présentes conditions opératoires, qu'un produit est un agent vasodilatateur périphérique si le débit artériel fémoral augmente d'au moins 30% par administration intraveineuse, d'une part, et par administration intraduodénale, d'autre part, sans que la variation de la pression artérielle soit supérieure à +10% ou inférieure à -10%."}, "[4]": {"system": "chien mâle anesthésié au nembutal", "assay": "Peripheral vasodilator properties, intravenous administration in the anaesthetised dog", "assay_type": "in vivo", "method": "as §1, §2"}, "[5]": {"details": "as indicated in British patent n° 1.325.192; cited from earlier work"}, "escarres": {"system": "escarres", "assay": "Clinical use in the treatment of bedsores", "assay_type": "in vivo, homme", "details": "in man"}},
  "data": [
    {"compound": "O=C(CCCN1CCCC1)c1c(O)cc(O)cc1O", "note": "[(2,4,6-trihydroxyphényl)-(3-pyrrolidinopropyl)-cétone]", "values": [
      {"measurement": "propriétés vasodilatatrices périphériques", "setting": "[1]", "value": "aussi intéressants que le LL 1656"}
    ]},
    {"compound": "COc1cc(O)cc(OC)c1C(=O)CCCN1CCCC1", "note": "[(2,6-diméthoxy-4-hydroxy-phényl)-(3-pyrrolidinopropyl)-cétone]", "values": [
      {"measurement": "propriétés vasodilatatrices périphériques", "setting": "[1]", "value": "dépourvus d'effets vasodilatateurs périphériques"}
    ]},
    {"compound": "COc1cc(O)c(C(=O)CCCN2CCCCC2)c(OC)c1", "note": "[CP1, chlorhydratede (2,4-diméthoxy-6-hydroxyphényl)-(3-pipé-ridinopropyl)-cétone]", "values": [
      {"measurement": "solubilité dans l'eau", "setting": "[2]", "value": "très soluble dans l'eau"},
      {"measurement": "diminution de la pression artérielle par voie I.D.", "setting": "[3]; intraduodenal route", "value": "> 10", "unit": "%"},
      {"measurement": "effet sur la pression artérielle par voie I.D.", "setting": "[3]; intraduodenal route", "value": "effet hypotenseur"},
      {"measurement": "effet vasodilatateur par voie I.D.", "setting": "[3]; intraduodenal route", "value": "n'a guère d'effet vasodilatateur"},
      {"measurement": "effet vasodilatateur par voie I.V.", "setting": "[4]; result in words, i.v. route", "value": "très faiblement vasodilatateur"}
    ]},
    {"compound": "COc1ccc(C(=O)CN2CCCCC2)c(OC)c1", "note": "[CP5, (2,4-dimé-thoxyphényl)-(pipéridinométhyl)-cétone]", "values": [
      {"measurement": "change in vivo at 20 mg/kg", "setting": "[3]; Canis lupus familiaris, intraduodenal, dose 20 mg/kg, versus controls, read-out: Variations en % Pression artérielle", "value": 0, "unit": "%"}
    ]},
    {"compound": "COc1cc(OC)c(C(=O)CCCN2CCCC2)c(OC)c1", "note": "[CP7, chlorhydratede (2,4,6-triméthoxyphényl)-(3-pyrrolidinopropyl)-cétone]", "values": [
      {"measurement": "change in vivo at 6 mg/kg", "setting": "[4]; Canis lupus familiaris, intravenous, dose 6 mg/kg, versus controls, read-out: Variations en % Fréquence cardiaque", "value": 0, "unit": "%"},
      {"measurement": "change in vivo at 1.5 mg/kg", "setting": "[4]; Canis lupus familiaris, intravenous, dose 1,5 mg/kg, versus controls, read-out: Variations en % Pression artérielle", "value": 0, "unit": "%"}
    ]},
    {"compound": "(2,6-dihydroxy-4-méthoxyphényl)- ou (2,4-dihydroxy-6-méthoxyphényl)-(3-pyrrolidinopropyl)-cétone", "values": [
      {"measurement": "propriétés vasodilatatrices périphériques", "setting": "[1]", "value": "dépourvus d'effets vasodilatateurs périphériques"}
    ]},
    {"compound": "O=C(CCCN1CCCCC1)c1c(O)cc(O)cc1O", "note": "[CP2, chlorhydratede (2,4,6-trihydroxyphényl)-(3-pipéridinopropyl)-cétone]", "values": [
      {"measurement": "dose à partir de laquelle le produit est vasodilatateur par voie I.V.", "setting": "[5]", "value": "≥ 5", "unit": "mg/kg"},
      {"measurement": "variation du débit artériel fémoral par voie I.D.", "setting": "[3]; intraduodenal route", "value": "+17%"},
      {"measurement": "effet sur la pression artérielle par voie I.D.", "setting": "[3]; intraduodenal route", "value": "effet hypotenseur"},
      {"measurement": "effet vasodilatateur par voie I.D.", "setting": "[3]; intraduodenal route", "value": "pratiquement dépourvu d'effet vasodilatateur"}
    ]},
    {"compound": "COc1cc(O)c(C(=O)CCCN2CCCC2)c(OC)c1", "note": "[(2,4-diméthoxy-6-hydroxyphényl)-(3-pyrrolidinopropyl)-cétone]", "values": [
      {"measurement": "propriétés vasodilatatrices périphériques", "setting": "[1]", "value": "aussi intéressants que le LL 1656"}
    ]},
    {"compound": "COc1cc(O)cc(OC)c1C(=O)CCCN1CCCCC1", "note": "[Exemple 1, chlorhydratede (2,6-diméthoxy-4-hydroxyphényl)-(3-pipéridinopropyl)-cétone]", "values": [
      {"measurement": "résultats dans le traitement des escarres", "setting": "escarres", "value": "bons résultats"},
      {"measurement": "solubilité dans l'eau", "setting": "[2]", "value": "soluble dans l'eau"},
      {"measurement": "variation du débit artériel fémoral par voie I.D.", "setting": "[3]; intraduodenal route", "value": "> +30%"},
      {"measurement": "activité en tant que vasodilatateur périphérique (comparaison)", "setting": "[4]; text conclusion from tables II and III (i.v. and i.d.)", "value": "aussi actif que le produit de référence CP7"},
      {"measurement": "variation du débit artériel fémoral par voie I.V.", "setting": "[4]; text summary over all i.v. doses (toujours)", "value": "> +30%"}
    ]}
  ]
}
